{
  "source": "patent US6512007B1",
  "about": "“Use of galiella lactone” (Bayer Aktiengesellschaft, priority 2000, dated 2003)",
  "tested_on": "Stat1",
  "experiment": "IL-6-induced tyrosine-701 phosphorylation of Stat1 in HepG2 cells, immunoprecipitation/Western blot",
  "assay_type": "cell-based, human",
  "conditions": "HepG2, IL-6 50 ng/ml; all concentrations tested, up to 16 μg/ml, equivalent to 165 μM",
  "source_text": "A crucial step in IL-6-dependent intracellular signal transduction is the phosphorylation of tyrosine-705 in Stat3 and tyrosine-701 in Stat1. […] However, inhibitors which inhibit the Stat3 and Stat1 phosphorylation also have crucial effects on other signal cascades, and therefore pharmaceutically usable inhibitors of IL-6-dependent gene expression should, in the concentration range in which they display their pharmacological effect, affect the Stat3 or Stat1 phosphorylation only slightly or not at all.\nSeed out HepG2 cells in Petri dishes (diameter: 10 cm) (OptiMEM medium with 10% fetal calf serum and penicillin/streptomycin (100 iu) cell density: 5×10^5 cell/ml). Incubate in a moist atmosphere with 5% CO2 at 37° C. for 24 h. Replace medium by fresh OptiMEM medium with 0.5% fetal calf serum and penicillin/streptomycin (100 iu) and incubate for a further 48 h. Replace medium by fresh OptiMEM medium with 0.5% fetal calf serum and penicillin/streptomycin (100 iu), add test substances in various concentrations, and incubate for 60 min. 5 μl of the substances dissolved in ethanol, or only ethanol (controls), were added per mixture (10 ml). Induce cells by adding IL-6 (final concentrations 50 ng/ml).\nAfter 20 min. remove medium and wash cell lawn twice wtih 1.5 ml of ice-cold PBS (137 mM NaCl, 2.7 mM KCl, 8.1 mM Na2HPO4×2H2O, 1.5 mM KH2PO4) each time. […]",
  "data": [
    {"smiles": "C[C@H]1C=C2C(=O)O[C@H]3CC[C@@H](C1)[C@@]23O", "note": "[galiella lactone]", "values": [
      {"measurement": "effect on the phosphorylation of Stat1", "value": "no effect"}
    ]}
  ]
}
